Assay results: US7314959B2, “Amino thiol compounds and compositions for use in conjunction with cancer therapy” (Wisconsin Alumni Research Foundation, priority 2003, dated 2008)
Read-outs that look alike come from different tables or passages of the source.

How the values were obtained:
[1] = system: radiation-induced dermatitis on backs of rats; experiment: Radiation-induced dermatitis in rat skin model; assay type: in vivo; conditions: for protective activity against radiation-induced dermatitis: 370 mM, vehicle 50:30:20, scored 13 days later
Experimental: To determine efficacy of chemoprotective polyamines in preventing radiation-induced dermatitis, adult rats were topically treated with the compounds before and after radiation treatment. Rats were exposed to medically relevant levels of radiation that could induce clinical radiation dermatitis. Sprague Dawley rats (Harlan Spraque Dawley) at 4-6 weeks-old were anesthetized with sodium pentobarbital at 40 mg/kg body weight (Sigma, St. Louis, Mo.) prior to radiation exposure. A defined area (1.5×2 cm) on the backs of rats was irradiated using a Mark I, Model 30, Cs 137 irradiator (J. L. Sheppard & Associates). Before topical drug treatment or irradiation, the backs of the rats were clipped using an Oster clipper at the closest setting. The rest of the body was protected from radiation exposure using a lead shield (2.5 cm thick). A dose response study was initially performed to reproduce relevant dermatitis that matched the Grade (I-IV) scale used to score the severity of radiation-induced dermatitis in humans. The severity of the dermatitis was scored 12-13 days post-irradiation at the peak of the dermal inflammation. […] Radiation dermatitis of Grade II-III was considered most clinically relevant, so a radiation dose of 8.7 Gy was typically used in the rats. The clipped back region on the rats was treated topically with aminothiol in delivery vehicle four times in the two hours immediately preceding irradiation (at −2 hr, −1 hr, −30 min, and −10 min; irradiation was at 0 min
The polyamines or amino thiols were prepared in a delivery vehicle, consisting of ethanol:propylene glycol:water, ranging from 0:95:5 to 50:30:20 depending upon the solubility characteristics of the topical molecule, and the degree of dermal penetration desired. A vehicle composed of an emulsion formed by sonication of ‘nonionic liposomes’ and isopropyl myristate was also used (Jayaraman, S. et al., J. Pharm. Sci. 85:1082-1084, 1996). In a commonly used protocol, 220 μl of topical drug/vehicle was applied to an area ˜2 cm×3 cm on the back in the 2 hr just prior to irradiation. Rats treated with only the delivery vehicle served as controls. Twelve to thirteen days post-radiation, the rats were evaluated for dermatitis within the irradiated area. In early studies, a modified scoring scale described by Masuda K. et al., Int. J. Radiation Oncol. Biol. Phys: 12, 1645 (1986) was used, and in later studies, including those described here, a simplified scoring system was used in which the percentage of the irradiated, rectangular field covered with scrab material was estimated between 0 and 100% to provide scores on a scale between 0 and 100.
This example relates to the use of a rat skin model to evaluate the efficacy of two amino thiol compounds in preventing radiation-induced dermatitis. To test whether topically-applied aminothiols could prevent the radiodermatitis caused by external beam radiotherapy, the rodent model described in Example 3 was slightly modified. Briefly, the radiodermatitis model involved: • i) shaving the backs of 6-7 week old rats or mice; • ii) applying four topical doses of aminothiol in a delivery vehicle composed of ethanol:propylene glycol (PG):water in the 2 hr prior to irradiation; • iii) irradiating a small, 3 cm^2 (1.5×2 cm) area on the animal's back (through a window in a lead plate) with 8.7 Gy of γ radiation from a Cs^137 source; and • iv) scoring the severity of the dermatitis 12-13 days later, at the peak of the inflammatory skin reaction. Radiodermatitis severity was scored by estimating the percentage of the irradiated field that was covered by scrab material.
Methods: Treatments were applied as described in Example 6.

[2] = system: 23SK skin cells; experiment: Flow cytometry cell cycle distribution; assay type: cell-based, human
Text: FIGS. 5A-5D are cell histograms showing the results from flow cytometry analysis of chemoprotective polyamine-treated 23SK skin cells.
In FIG. 5, cell histograms showing the results from flow cytometry analysis of chemoprotective polyamine-treated 23SK skin cells are shown. […] The transient nature of the cell cycle block induced by chemoprotective polyamines is believed to be an important aspect of their efficacy, i.e., their ability to block cell cycle progression in stem cells during the course of chemo- or radiotherapy, and the resumption of normal stem cell division after a given cancer therapy course has been completed.

[3] = system: p21 protein in 23SK human skin cells; experiment: p21 induction by western analysis; assay type: cell-based; conditions: 23SK cells, 30 hr exposure
Experimental: FIGS. 3A and 3B illustrate the level of induced p21 protein seen in diploid human fibroblasts after a 30 hr exposure to each of the indicated chemoprotective polyamines. […] In these experiments, the 23SK human skin cells were exposed for 30 hr to an “IC80” dose of each of the indicated chemoprotective polyamines and then lysed. Cell extracts were then prepared in order to measure p21 levels by western analysis (FIG. 3A).
FIG. 3 illustrates that chemoprotective polyamines are able to induce expression of the negative cell cycle regulatory protein, p21, after exposing the human skin cells to the polyamine molecules. […] In these experiments, the 23SK human skin cells were exposed for 30 hr to an “IC80” dose of each of the indicated chemoprotective polyamines and then lysed. Cell extracts were then prepared in order to measure p21 levels by western analysis (FIG. 3A). Although the ability of modified polyamines to induce p21 is known in the literature (Kramer, D. et al., Cancer Res. 59:1278-1286, 1999), it is a novel aspect of this invention that those chemoprotective polyamines with longer aliphatic “arms” were better able to induce expression of p21 as shown in FIG. 4.

[4] = target: DNA; experiment: DNA binding/precipitation from solution
Text: The chemoprotective polyamines provided herein are also able to bind, denature and precipitate DNA from solution. As the skilled artisan will appreciate, as the concentration of polyamine is increased, there is a point where polyamine binding to helical B-DNA induces single-stranded ‘bubbles’ and conversion to other forms of DNA structure, such as Z-DNA (Feuerstein, B. et al., Nuc. Acids Res. 17:6883-6892, 1989; Basu, H. and Marton, L., Biochem. J. 244:243-246, 1987), as well as precipitating the DNA from solution.

[5] = system: primary, diploid fibroblasts isolated from human skin; experiment: Growth inhibition of primary diploid human skin fibroblasts; assay type: cell-based; conditions: 50% inhibition of human skin fibroblast growth
Experimental: The in vitro growth inhibitory effects of certain of the chemoprotective polyamines of the invention were measured using primary, diploid fibroblasts isolated from human skin.

[6] = Expt. 1, read-out: DNA Bind/ppt. IC50 (uM), Expt. 1
[7] = Expt. 2, read-out: DNA Bind/ppt. IC50 (uM), Expt. 2
[8] = Expt. 1, read-out: IC50 (uM), Expt. 1
[9] = Expt. 2, read-out: IC50 (uM), Expt. 2

CC(C)S [Mechanism Structure 1, reference compound]
protective activity against radiation-induced dermatitis ([1]; 8.7 Gy): neither molecule exhibited discernable protective activity

CCNCCCCNCCCCNCCCCNCC=C(CS)CNCCCCNCCCCNCCCCNCC [PrC-123]
Cell Cycle Distribution At IC80 Dose (%) G1 [2]: 68% | Cell Cycle Distribution At IC80 Dose (%) G2/M [2]: 21% | Cell Cycle Distribution At IC80 Dose (%) S [2]: 10% | p21 fold-induction at IC80 Dose [3]: 2.22 fold | IC50 [4, 6]: 131 µM | IC50 [4, 7]: 117 µM

CCNCCCCNCCCCNCCCCNC/C=C(/CS)CNCCCCNCCCCNCCCCNCC [PrC-116]
Cell Cycle Distribution At IC80 Dose (%) G1 [2]: 66% | Cell Cycle Distribution At IC80 Dose (%) G2/M [2]: 23% | Cell Cycle Distribution At IC80 Dose (%) S [2]: 11% | p21 fold-induction at IC80 Dose [3]: 2.32 fold | IC50 [5, 8]: 5.8 µM | IC50 [4, 6]: 82 µM | IC50 [4, 7]: 63 µM

CNCCCNC [Mechanism Structure 2, reference compound]
protective activity against radiation-induced dermatitis ([1]; 8.7 Gy): neither molecule exhibited discernable protective activity

CCNCCCCNCCCCNC/C=C(/CS)CNCCCCNCCCCNCC [PrC-115]
IC50 [5, 8]: 4100 µM | IC50 [5, 9]: 1090 µM | IC50 [4, 6]: 37 µM | IC50 [4, 7]: 83 µM

CCNCCCCNCCCCNCCCCNCC=C(CNCC)CNCCCCNCCCCNCCCCNCC [PrC-112]
Cell Cycle Distribution At IC80 Dose (%) G1 [2]: 61% | Cell Cycle Distribution At IC80 Dose (%) G2/M [2]: 16% | Cell Cycle Distribution At IC80 Dose (%) S [2]: 23% | p21 fold-induction at IC80 Dose [3]: 2.45 fold | IC50 [5, 8]: 2.53 µM | IC50 [4, 6]: 93 µM

CCNCCCCNC/C=C(/CS)CNCCCCNCC [PrC-114]
IC50 [5, 8]: 850 µM | IC50 [5, 9]: 240 µM | IC50 [4, 6]: 94 µM

NCC(CN)CS [PrC-211, 3-amino-2-aminomethyl-propane-1-thiol]
Dermatitis Score (% of irradiated field free of scab material) ([1]; 1400 mM PrC-211, vehicle 0:95:5 (ditto mark), cage 488): 60 ± 12% | concentration of topical aminothiol alone conferring complete protection against radiodermatitis ([1]; aminothiol alone, without epinephrine, 8.7 Gy): ~2200 mM

CCNCCCCNCCCCNCCCCNCCCCNC/C=C(/CS)CNCCCCNCCCCNCCCCNCCCCNCC [PrC-117]
distribution within cell cycle compartments after drug removal ([2]; 72 hr treatment, then 48 hr in drug-free medium (FIG. 5D)): basically returned to that seen in cells previously untreated | Cell Cycle Distribution At IC80 Dose (%) G1 [2]: 86% | Cell Cycle Distribution At IC80 Dose (%) G2/M [2]: 3% | Cell Cycle Distribution At IC80 Dose (%) S [2]: 11% | cells in G1 compartment ([2]; treated 72 hr (FIG. 5C)): 86.23% | cells in S+G2 compartments ([2]; treated 72 hr (FIG. 5C)): 13.77% | p21 fold-induction at IC80 Dose [3]: ~3.0 fold | IC50 [5, 8]: 0.32 µM | IC50 [5, 9]: 0.24 µM | IC50 [4, 6]: 58 µM | IC50 [4, 7]: 57 µM

NCCCNCCCCNCCCN [Spermine, spermine, reference compound]
IC50 [4, 6]: 2600 µM | IC50 for DNA binding/precipitation relative to most chemoprotective polyamines ([4]; spermine versus chemoprotective polyamines of Table 2): ~1,000 fold

CN[C@H]1CCc2cc(OC)c(OC)c(OC)c2-c2ccc(OC)c(=O)cc21 [Colcemid, reference compound]
Cell Cycle Distribution At IC80 Dose (%) G1 [2]: 8% | Cell Cycle Distribution At IC80 Dose (%) G2/M [2]: 81% | Cell Cycle Distribution At IC80 Dose (%) S [2]: 11% | p21 fold-induction at IC80 Dose [3]: 3.31 fold

CCNCCCCNCCCCNCC=C(CO)CNCCCCNCCCCNCC [PrC-118]
IC50 [5, 8]: 78 µM

CCNCCCCNCCCCNCC=C(CNC)CNCCCCNCCCCNCC [PrC-119]
p21 fold-induction at IC80 Dose [3]: 1.80 fold | IC50 [5, 8]: 470 µM | IC50 [5, 9]: 202 µM | IC50 [4, 6]: 89 µM
